In brackets after ≈: the same amount, converted by molar mass.

Experimental findings from ChEMBL document CHEMBL1649544, “Novel ABC transporter gene, vga(C), located on a multiresistance plasmid from a porcine methicillin-resistant Staphylococcus aureus ST398 strain” (2009) are described below.

Type in all cases: functional
Assay [1] relates to Staphylococcus aureus. The experiment in a line: Antibacterial activity against Staphylococcus aureus RN4220 by CLSI method.
For assay [2], the system named is Staphylococcus aureus. Briefly: Antibacterial activity against Staphylococcus aureus RN4220 harboring aadD, tet(L), dfrK and vga(C) gene by CLSI method.
Assay [3] has as its system Staphylococcus aureus. The experiment in a line: Antibacterial activity against Staphylococcus aureus RN4220 harboring tet(L), dfrK gene by CLSI method.
Assay [4] relates to Staphylococcus aureus. Briefly: Antibacterial activity against Staphylococcus aureus RN4220 harboring aadD and tet(L) gene by CLSI method.

As usually defined, the MIC is the least concentration at which growth counts as inhibited. High values mean weaker potency, low ones greater potency. With `CCC[C@@H]1C[C@@H](C(=O)N[C@@H]([C@H]2O[C@H](SC)[C@H](O)[C@@H](O)[C@H]2O)[C@H](C)Cl)N(C)C1` [CLINDAMYCIN], the values for the minimal inhibitory concentration (MIC) in assay [1] and in assay [2] were at most 0.12 µg/mL and 2 µg/mL (≈ 4.71 µM), respectively.
With `CC[C@H]1OC(=O)[C@H](C)[C@@H](O[C@H]2C[C@@](C)(OC)[C@@H](O)[C@H](C)O2)[C@H](C)[C@@H](O[C@@H]2O[C@H](C)C[C@H](N(C)C)[C@H]2O)[C@](C)(O)C[C@@H](C)C(=O)[C@H](C)[C@@H](O)[C@]1(C)O` [ERYTHROMYCIN], the MIC in assay [1], in assay [3], in assay [4] and in assay [2] was 0.25 µg/mL (≈ 0.341 µM) each time.
With `NC[C@@H]1O[C@H](O[C@H]2[C@@H](O)[C@H](O[C@@H]3[C@@H](O)[C@H](N)C[C@H](N)[C@H]3O[C@H]3O[C@H](CN)[C@@H](O)[C@H](O)[C@H]3N)O[C@@H]2CO)[C@H](N)[C@@H](O)[C@@H]1O` [FRAMYCETIN], the figures for the MIC in assay [1], in assay [4] and in assay [2] were at most 1 µg/mL, 64 µg/mL (≈ 104 µM) and 64 µg/mL (≈ 104 µM), respectively.
Take `NC[C@H]1O[C@H](O[C@H]2[C@H](O)[C@@H](O[C@H]3O[C@H](CO)[C@@H](O)[C@H](N)[C@H]3O)[C@H](N)C[C@@H]2N)[C@H](O)[C@@H](O)[C@@H]1O` [KANAMYCIN]: the minimal inhibitory concentration (MIC) came out at 4 µg/mL (≈ 8.26 µM) in assay [1], 4 µg/mL (≈ 8.26 µM) in assay [3], 32 µg/mL (≈ 66 µM) in assay [4] and 32 µg/mL (≈ 66 µM) in assay [2].
In the case of `CCC[C@@H]1C[C@@H](C(=O)N[C@@H]([C@H]2O[C@H](SC)[C@H](O)[C@@H](O)[C@H]2O)[C@@H](C)O)N(C)C1` [LINCOMYCIN], the minimum inhibitory concentration (MIC) in assay [1] came to 1 µg/mL (≈ 2.46 µM); in assay [3], 1 µg/mL (≈ 2.46 µM); in assay [4], 1 µg/mL (≈ 2.46 µM); in assay [2], 64 µg/mL (≈ 157 µM).
In the case of `CC[C@@H]1CCN[C@H](C(=O)N[C@@H]([C@H]2O[C@H](SC)[C@H](O)[C@@H](O)[C@H]2O)[C@H](C)Cl)C1` [PIRLIMYCIN], the minimum inhibitory concentration (MIC) in assay [1] was 0.25 µg/mL (≈ 0.608 µM); in assay [3], 0.25 µg/mL (≈ 0.608 µM); in assay [4] it was 0.25 µg/mL (≈ 0.608 µM); in assay [2] it was 4 µg/mL (≈ 9.73 µM).
Regarding `CN(C)[C@@H]1C(O)=C(C(N)=O)C(=O)[C@@]2(O)C(O)=C3C(=O)c4c(O)cccc4[C@@](C)(O)[C@H]3C[C@@H]12` [TETRACYCLINE], the MIC in assay [1] turned out to be 0.06 µg/mL (≈ 0.135 µM); in assay [3] it was 64 µg/mL (≈ 144 µM); in assay [4], 64 µg/mL (≈ 144 µM); in assay [2], 64 µg/mL (≈ 144 µM).
With `C=C[C@]1(C)C[C@@H](OC(=O)CSCCN(CC)CC)[C@]2(C)[C@H](C)CC[C@]3(CCC(=O)[C@H]32)[C@@H](C)[C@@H]1O` [TIAMULIN], the minimal inhibitory concentration (MIC) was 0.06 µg/mL (≈ 0.122 µM) in assay [1], 0.06 µg/mL (≈ 0.122 µM) in assay [3], 0.06 µg/mL (≈ 0.122 µM) in assay [4] and at least 128 µg/mL in assay [2].
Turning to `COc1cc(Cc2cnc(N)nc2N)cc(OC)c1OC` [TRIMETHOPRIM], the minimum inhibitory concentration (MIC) in assay [1] is 0.5 µg/mL (≈ 1.72 µM); in assay [3] it was at least 512 µg/mL; in assay [4], 0.5 µg/mL (≈ 1.72 µM); in assay [2], at least 512 µg/mL.
Turning to `C=C[C@]1(C)C[C@@H](OC(=O)CSC(C)(C)CNC(=O)[C@H](N)C(C)C)[C@]2(C)[C@H](C)CC[C@]3(CCC(=O)[C@H]32)[C@@H](C)[C@@H]1O` [VALNEMULIN], the minimal inhibitory concentration (MIC) was 0.03 µg/mL (≈ 0.0531 µM) in assay [1], 0.03 µg/mL (≈ 0.0531 µM) in assay [3], 0.03 µg/mL (≈ 0.0531 µM) in assay [4] and at least 128 µg/mL in assay [2].
In the case of `CC1=C\[C@@H](O)CC(=O)Cc2nc(co2)C(=O)N2CCC=C2C(=O)O[C@H](C(C)C)[C@H](C)/C=C/C(=O)NC\C=C\1` [VIRGINIAMYCIN FACTOR M1], the minimal inhibitory concentration (MIC) in assay [1] was found to be 4 µg/mL (≈ 7.61 µM); in assay [3], 4 µg/mL (≈ 7.61 µM); in assay [4] it was 4 µg/mL (≈ 7.61 µM); in assay [2], 32 µg/mL (≈ 60.9 µM).
